Test results taken from ChEMBL document CHEMBL3352063, “Transition state mimetics of the Plasmodium export element are potent inhibitors of Plasmepsin V from P. falciparum and P. vivax” (J Med Chem, 2014).
Numbered stars: 1 amine (or outer) side, 2 acyl side, 3 side chain; on linkers, the order of the positions; unused ones are H or OH. Square brackets hold non-standard residues; d marks the D form. Peptide text beside a SMILES is read from it. * marks the point of attachment. Sta = CC(C)C[C@H](N)[C@@H](O)CC(=O)O; Hydrocinnamoyl = O=C(CCc1ccccc1)*; NHPhenethyl = c1ccc(CCN*)cc1; Cbz = O=C(OCc1ccccc1)*; CO = O=C([*:1])[*:2]; NHBn = c1ccc(CN*)cc1; NHPr = CCCN*

Tests used:
[1] = test system: Plasmodium falciparum; test: Antiplasmodial activity against Plasmodium falciparum 3D7 infected in human O positive erythrocyte after 72 hrs; assay type: functional, organism-based; details: 3D7, 72 h
[2] = target: Plasmepsin V (Plasmodium falciparum (isolate 3D7)) (UniProt Q8I6Z5); test: Inhibition of Plasmodium falciparum plasmepsin V assessed as cleavage of wtKAHRP fluorogenic substrate at 1 uM
[3] = target: Cathepsin D (Homo sapiens, UniProt P07339); test: Inhibition of human cathepsin D assessed as cleavage of wtKAHRP fluorogenic substrate
[4] = target: Plasmepsin V (Plasmodium falciparum (isolate 3D7), UniProt Q8I6Z5); test: Inhibition of Plasmodium falciparum plasmepsin V assessed as cleavage of wtKAHRP fluorogenic substrate
[5] = target: Beta-secretase 1 (Homo sapiens, UniProt P56817); test: Inhibition of human BACE1 assessed as cleavage of TRF substrate
[6] = target: Plasmepsin V (Plasmodium falciparum (isolate 3D7)) (UniProt Q8I6Z5); test: Inhibition of plasmepsin V in Plasmodium falciparum trophozoite expressing PfEMP3-GFP infected erythrocyte assessed as PEXEL processing at 20 uM by immunoblotting analysis
[7] = test system: HepG2; test: Cytotoxicity against human HepG2 cells assessed as cell death after 48 hrs by Cell Titer-Glo assay; assay type: cell-based; details: HepG2, 48 h

Chain of Beta-secretase 1 (P56817 whole entry): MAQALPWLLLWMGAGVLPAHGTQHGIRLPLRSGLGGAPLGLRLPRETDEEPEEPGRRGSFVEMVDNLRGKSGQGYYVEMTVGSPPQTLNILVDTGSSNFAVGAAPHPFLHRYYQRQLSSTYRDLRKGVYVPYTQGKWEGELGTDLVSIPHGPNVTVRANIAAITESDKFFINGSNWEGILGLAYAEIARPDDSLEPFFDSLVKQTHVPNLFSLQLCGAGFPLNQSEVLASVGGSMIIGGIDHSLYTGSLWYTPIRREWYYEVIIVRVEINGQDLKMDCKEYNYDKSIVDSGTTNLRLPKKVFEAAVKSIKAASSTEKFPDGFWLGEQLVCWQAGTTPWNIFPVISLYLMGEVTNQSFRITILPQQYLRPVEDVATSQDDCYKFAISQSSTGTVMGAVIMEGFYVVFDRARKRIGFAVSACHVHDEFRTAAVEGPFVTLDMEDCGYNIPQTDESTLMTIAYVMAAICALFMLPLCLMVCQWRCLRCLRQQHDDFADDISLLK
Chain of Plasmepsin V (Plasmodium falciparum (isolate 3D7)) (Q8I6Z5 whole entry, looked up): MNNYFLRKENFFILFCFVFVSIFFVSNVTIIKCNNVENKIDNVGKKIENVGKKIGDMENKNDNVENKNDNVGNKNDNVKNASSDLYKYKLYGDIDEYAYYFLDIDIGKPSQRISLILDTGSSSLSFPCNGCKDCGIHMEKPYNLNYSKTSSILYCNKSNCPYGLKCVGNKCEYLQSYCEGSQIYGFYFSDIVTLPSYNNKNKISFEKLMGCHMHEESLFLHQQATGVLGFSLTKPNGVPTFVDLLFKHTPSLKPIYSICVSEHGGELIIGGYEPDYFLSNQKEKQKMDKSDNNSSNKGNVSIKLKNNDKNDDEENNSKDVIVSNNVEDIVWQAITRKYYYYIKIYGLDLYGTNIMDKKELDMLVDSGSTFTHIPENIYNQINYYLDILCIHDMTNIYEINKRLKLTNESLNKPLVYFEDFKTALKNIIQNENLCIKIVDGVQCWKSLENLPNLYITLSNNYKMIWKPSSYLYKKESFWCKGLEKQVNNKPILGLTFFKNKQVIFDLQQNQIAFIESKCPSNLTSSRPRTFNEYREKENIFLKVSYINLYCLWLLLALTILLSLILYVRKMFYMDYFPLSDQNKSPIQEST
Chain of Plasmepsin V (Q8I6Z5 whole entry): as the sequence (Q8I6Z5 whole entry, looked up) above
Chain of Cathepsin D (P07339 65-162 limits assumed): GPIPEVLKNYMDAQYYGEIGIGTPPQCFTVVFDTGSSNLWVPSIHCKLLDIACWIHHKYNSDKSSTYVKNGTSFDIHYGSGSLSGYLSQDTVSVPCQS
Chain of Cathepsin D (P07339 169-412 limits assumed): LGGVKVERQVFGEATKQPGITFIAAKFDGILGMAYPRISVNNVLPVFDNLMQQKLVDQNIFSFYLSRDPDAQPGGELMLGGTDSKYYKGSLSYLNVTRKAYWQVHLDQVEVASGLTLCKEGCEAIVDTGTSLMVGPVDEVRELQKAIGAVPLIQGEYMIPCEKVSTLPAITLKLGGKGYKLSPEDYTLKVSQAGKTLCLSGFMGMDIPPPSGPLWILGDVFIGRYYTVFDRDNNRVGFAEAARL

| SMILES | inhibition [2] | IC50 [3] | IC50 [4] | IC50 [5] | further results |
| --- | --- | --- | --- | --- | --- |
| CCN(CC)CCCC(C)Nc1ccnc2cc(Cl)ccc12 (configuration not stated) [CHLOROQUINE] |  |  |  |  | EC50 [1]: 0.003 µM |
| CC(C)C[C@H](NC(=O)[C@H](C)NC(=O)[C@H](CCCNC(=N)N)NC(=O)OCc1ccccc1)[C@@H](O)CC(=O)N(C)C(C)c1ccccc1 (some centres not stated) | 30% |  |  |  |  |
| CC(C)C[C@H](NC(=O)[C@H](C)NC(=O)[C@H](CCCNC(=N)N)NC(=O)OCc1ccccc1)[C@@H](O)CC(=O)N(C)CCc1ccccc1 | 11% |  |  |  |  |
| CC(=O)N[C@@H](CCCNC(=N)N)C(=O)N[C@@H](C)C(=O)N[C@@H](CC(C)C)[C@@H](O)CC(=O)N[C@@H](C)C(N)=O (Ac-RA[Sta]A-NH2) |  | > 100 µM | 0.613 µM | > 100 µM |  |
| CC(C)C[C@H](NC(=O)[C@H](C)NC(=O)[C@H](CCCNC(=N)N)NC(=O)COCc1ccccc1)[C@@H](O)CC(=O)NCCc1ccccc1 | 81% | > 100 µM | 0.55 µM | > 100 µM | Activity [6]: 0.16 OD/mm2; EC50 [7]: > 50 µM; EC50 [1]: 23 µM |
| CCCNC(=O)C[C@H](O)[C@H](CC(C)C)NC(=O)[C@H](C)NC(=O)[C@H](CCCNC(=N)N)NC(=O)OCc1ccccc1 (Cbz-Arg-Ala-[Sta]-NHPr) | 56% |  |  |  |  |
| CC(C)C[C@H](NC(=O)[C@H](C)NC(=O)[C@H](CCCNC(=N)N)NC(=O)OCc1ccccc1)[C@@H](O)CC(=O)N1CCc2ccccc2C1 | 45% |  |  |  |  |
| CC(C)C[C@H](NC(=O)[C@H](C)NC(=O)[C@H](CCCCN)NC(=O)OCc1ccccc1)[C@@H](O)CC(=O)NC1CCCCC1 |  | > 100 µM | > 20 µM | > 100 µM |  |
| CC(=O)N[C@@H](CCCNC(=N)N)C(=O)N[C@@H](C)C(=O)N[C@@H](CC(C)C)[C@@H](O)CC(=O)NC1CCCCC1 |  | > 100 µM | 0.967 µM | > 100 µM |  |
| CC(C)C[C@H](NC(=O)[C@H](C)NC(=O)[C@H](CCCNC(=N)N)NC(=O)OCc1ccccc1)[C@@H](O)CC(=O)N(C)Cc1ccccc1 | 30% |  |  |  |  |
| CC(C)CNC(=O)C[C@H](O)[C@H](CC(C)C)NC(=O)[C@H](C)NC(=O)[C@H](CCCNC(=N)N)NC(=O)OCc1ccccc1 | 49% |  |  |  |  |
| CC(C)C[C@H](NC(=O)[C@@H](NC(=O)[C@H](CCCNC(=N)N)NC(=O)OCc1ccccc1)C(C)C)[C@@H](O)CC(=O)NC1CCCCC1 |  | 0.713 µM | 0.029 µM | > 100 µM | Activity [6]: 0.24 OD/mm2; EC50 [7]: > 50 µM; EC50 [1]: 9.8 µM |
| CC(C)C[C@H](NC(=O)[C@H](C)NC(=O)[C@H](CCCNC(=N)N)NC(=O)OCc1ccccc1)[C@@H](O)CC(=O)NCCCc1ccccc1 | 75% |  |  |  |  |
| CC(C)C[C@H](NC(=O)[C@H](C)NC(=O)[C@H](CCCN)NC(=O)OCc1ccccc1)[C@@H](O)CC(=O)NC1CCCCC1 |  | > 100 µM | > 20 µM | > 100 µM | Activity [6]: 0.18 OD/mm2; EC50 [7]: > 50 µM; EC50 [1]: > 50 µM |
| CC(C)C[C@H](NC(=O)[C@H](C)NC(=O)[C@H](CCCNC(=N)N)NC(=O)NCc1ccccc1)[C@@H](O)CC(=O)NCCc1ccccc1 ({NHBn-CO}-Arg-Ala-[Sta]-NHPhenethyl) | 32% |  |  |  |  |
| CC(C)[C@H](NC(=O)[C@H](C)NC(=O)[C@H](CCCNC(=N)N)NC(=O)OCc1ccccc1)[C@@H](O)CC(=O)NC1CCCCC1 |  |  | > 20 µM |  |  |
| CC(C)C[C@H](NC(=O)[C@H](C)NC(=O)[C@H](CCCNC(=N)N)NC(=O)C1CCCCC1)[C@@H](O)CC(=O)NCCc1ccccc1 | 43% |  |  |  |  |
| CC(C)C[C@H](NC(=O)[C@H](C)NC(=O)[C@H](CCCNC(=N)N)NS(=O)(=O)CCc1ccccc1)[C@@H](O)CC(=O)NCCc1ccccc1 | 78% |  |  |  |  |
| CC(C)C[C@H](NC(=O)[C@H](C)NC(=O)[C@H](CCCNC(=N)N)NC(=O)CCc1ccccc1)[C@@H](O)CC(=O)NCCc1ccccc1 (Hydrocinnamoyl-Arg-Ala-[Sta]-NHPhenethyl) | 68% |  |  |  |  |
| CC(C)C[C@H](NC(=O)[C@H](C)NC(=O)[C@H](CCCNC(=N)N)NC(=O)OCc1ccccc1)[C@@H](O)CC(=O)N1CCC(c2ccccc2)CC1 | 13% |  |  |  |  |
| CC[C@H](C)[C@H](NC(=O)[C@H](CCCNC(=N)N)NC(=O)OCc1ccccc1)C(=O)N[C@@H](CC(C)C)[C@@H](O)CC(=O)NC1CCCCC1 |  | 0.447 µM | 0.026 µM | > 100 µM | Activity [6]: 0.53 OD/mm2; EC50 [1]: 6.8 µM |
